Results as given in paper PMC9482650, “Quantitative fragmentomics allow affinity mapping of interactomes” (Nature Communications, 2022).
Ends that are not written are not given here.

Key:
Assay in all cases: Holdup assay
Format in all cases: binding
[1] = target: NHERF3_1 PDZ (Homo sapiens, UniProt Q5T2W1); settings: composite holdup affinity; 0.00=below quantification threshold; read-out: COMP pKd (converted)
[2] = target: T1, SYNJ2BP PDZ (Homo sapiens, UniProt P57105); settings: composite holdup affinity; 0.00=below quantification threshold; read-out: COMP pKd (converted)
T1 sequence (P57105 13-100 limits assumed): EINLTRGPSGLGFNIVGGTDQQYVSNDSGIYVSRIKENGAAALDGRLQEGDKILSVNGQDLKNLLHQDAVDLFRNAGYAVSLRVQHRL

[3] = target: DLG1_2 PDZ (Homo sapiens, UniProt Q12959); settings: composite holdup affinity; 0.00=below quantification threshold; read-out: COMP pKd (converted)
[4] = target: DLG1_1 PDZ (Homo sapiens, UniProt Q12959); settings: composite holdup affinity; 0.00=below quantification threshold; read-out: COMP pKd (converted)
[5] = target: PTPN3 PDZ (Homo sapiens, UniProt P26045); settings: composite holdup affinity; 0.00=below quantification threshold; read-out: COMP pKd (converted)
Sequence of PTPN3 PDZ (P26045 510-582 limits assumed): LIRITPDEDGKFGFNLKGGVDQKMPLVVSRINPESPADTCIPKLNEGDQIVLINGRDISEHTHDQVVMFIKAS

[6] = target: MAST1 PDZ (Homo sapiens, UniProt Q9Y2H9); settings: composite holdup affinity; 0.00=below quantification threshold; read-out: COMP pKd (converted)
Sequence of MAST1 PDZ (Q9Y2H9 967-1055 limits assumed): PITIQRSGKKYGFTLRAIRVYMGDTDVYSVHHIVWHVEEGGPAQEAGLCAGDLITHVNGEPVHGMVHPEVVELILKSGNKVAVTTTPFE

[7] = target: T2, TX1BP3 PDZ (Homo sapiens, UniProt O14907); settings: composite holdup affinity; 0.00=below quantification threshold; read-out: COMP pKd (converted)
T2 sequence (O14907 15-112 limits assumed): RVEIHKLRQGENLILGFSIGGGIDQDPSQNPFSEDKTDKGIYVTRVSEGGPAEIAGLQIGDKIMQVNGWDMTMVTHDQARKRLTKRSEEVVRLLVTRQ

[8] = target: LAP2 PDZ (Homo sapiens, UniProt Q96RT1); settings: composite holdup affinity; 0.00=below quantification threshold; read-out: COMP pKd (converted)
Sequence of LAP2 PDZ (Q96RT1 1321-1410 limits assumed): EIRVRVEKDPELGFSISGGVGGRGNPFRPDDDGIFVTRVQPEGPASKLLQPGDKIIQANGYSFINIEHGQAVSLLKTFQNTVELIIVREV

[9] = target: GRASP PDZ (Homo sapiens, UniProt Q7Z6J2); settings: composite holdup affinity; 0.00=below quantification threshold; read-out: COMP pKd (converted)
Sequence of GRASP PDZ (Q7Z6J2 101-190 limits assumed): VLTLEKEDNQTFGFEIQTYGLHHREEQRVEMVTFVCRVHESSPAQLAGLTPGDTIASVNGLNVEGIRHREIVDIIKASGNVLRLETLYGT

[10] = target: ARHGEF11 PDZ (Homo sapiens, UniProt O15085); settings: composite holdup affinity; 0.00=below quantification threshold; read-out: COMP pKd (converted)
Sequence of ARHGEF11 PDZ (O15085 47-126 limits assumed): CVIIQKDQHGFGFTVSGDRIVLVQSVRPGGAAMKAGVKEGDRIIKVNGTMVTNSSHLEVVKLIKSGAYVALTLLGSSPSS

[11] = target: Inadl_8 PDZ (Homo sapiens, UniProt Q8NI35); settings: composite holdup affinity; 0.00=below quantification threshold; read-out: COMP pKd (converted)
Sequence of Inadl_8 PDZ (Q8NI35 1437-1520 limits assumed): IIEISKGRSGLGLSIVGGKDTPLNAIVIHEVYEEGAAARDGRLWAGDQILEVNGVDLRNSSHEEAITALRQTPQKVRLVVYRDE

[12] = target: DLG4_3 PDZ (Homo sapiens, UniProt P78352); settings: composite holdup affinity; 0.00=below quantification threshold; read-out: COMP pKd (converted)
Sequence of DLG4_3 PDZ (P78352 313-393 limits assumed): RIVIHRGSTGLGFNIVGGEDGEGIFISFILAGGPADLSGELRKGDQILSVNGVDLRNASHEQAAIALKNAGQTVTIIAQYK

[13] = target: DLG1_3 PDZ (Homo sapiens, UniProt Q12959); settings: composite holdup affinity; 0.00=below quantification threshold; read-out: COMP pKd (converted)
[14] = target: Inadl_3 PDZ (Homo sapiens, UniProt Q8NI35); settings: composite holdup affinity; 0.00=below quantification threshold; read-out: COMP pKd (converted)
Sequence of Inadl_3 PDZ (Q8NI35 365-453 limits assumed): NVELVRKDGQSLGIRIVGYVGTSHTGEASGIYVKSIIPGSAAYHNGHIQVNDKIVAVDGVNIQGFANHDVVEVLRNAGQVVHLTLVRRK

[15] = target: FRMPD2_2 PDZ (Homo sapiens, UniProt Q68DX3); settings: composite holdup affinity; 0.00=below quantification threshold; read-out: COMP pKd (converted)
Sequence of FRMPD2_2 PDZ (Q68DX3 950-1035 limits assumed): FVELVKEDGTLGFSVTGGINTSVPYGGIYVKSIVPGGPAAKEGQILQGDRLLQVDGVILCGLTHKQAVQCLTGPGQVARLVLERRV

[16] = target: LIN7C PDZ (Homo sapiens, UniProt Q9NUP9); settings: composite holdup affinity; 0.00=below quantification threshold; read-out: COMP pKd (converted)
Sequence of LIN7C PDZ (Q9NUP9 93-175 limits assumed): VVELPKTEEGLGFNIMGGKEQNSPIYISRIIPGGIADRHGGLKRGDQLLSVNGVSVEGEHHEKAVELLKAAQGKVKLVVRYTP

[17] = target: LIN7B PDZ (Homo sapiens, UniProt Q9HAP6); settings: composite holdup affinity; 0.00=below quantification threshold; read-out: COMP pKd (converted)
Sequence of LIN7B PDZ (Q9HAP6 93-175 limits assumed): as the sequence (Q9NUP9 93-175 limits assumed) above, with E8D, I30V, I35V, H60Q, K74S counted along it

[18] = target: LNX1_2 PDZ (Homo sapiens, UniProt Q8TBB1); settings: composite holdup affinity; 0.00=below quantification threshold; read-out: COMP pKd (converted)
Sequence of LNX1_2 PDZ (Q8TBB1 381-464 limits assumed): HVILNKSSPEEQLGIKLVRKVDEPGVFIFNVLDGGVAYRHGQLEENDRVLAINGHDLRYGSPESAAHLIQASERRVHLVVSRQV

[19] = target: GRIP2_7 PDZ (Homo sapiens, UniProt Q9C0E4); settings: composite holdup affinity; 0.00=below quantification threshold; read-out: COMP pKd (converted)
Sequence of GRIP2_7 PDZ (Q9C0E4 941-1023 limits assumed): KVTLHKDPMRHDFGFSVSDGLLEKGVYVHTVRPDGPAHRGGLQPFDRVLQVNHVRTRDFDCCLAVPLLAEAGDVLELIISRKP

[20] = target: GIPC2 PDZ (Homo sapiens, UniProt Q8TF65); settings: composite holdup affinity; 0.00=below quantification threshold; read-out: COMP pKd (converted)
Sequence of GIPC2 PDZ (Q8TF65 117-197 limits assumed): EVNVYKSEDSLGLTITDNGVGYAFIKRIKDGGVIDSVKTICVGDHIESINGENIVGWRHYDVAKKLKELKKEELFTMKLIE

[21] = target: FRMPD2_3 PDZ (Homo sapiens, UniProt Q68DX3); settings: composite holdup affinity; 0.00=below quantification threshold; read-out: COMP pKd (converted)
Sequence of FRMPD2_3 PDZ (Q68DX3 1079-1167 limits assumed): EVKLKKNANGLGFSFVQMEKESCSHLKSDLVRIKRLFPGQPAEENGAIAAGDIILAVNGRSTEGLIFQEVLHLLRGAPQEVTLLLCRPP

[22] = target: GRIP2_5 PDZ (Homo sapiens, UniProt Q9C0E4); settings: composite holdup affinity; 0.00=below quantification threshold; read-out: COMP pKd (converted)
Sequence of GRIP2_5 PDZ (Q9C0E4 557-641 limits assumed): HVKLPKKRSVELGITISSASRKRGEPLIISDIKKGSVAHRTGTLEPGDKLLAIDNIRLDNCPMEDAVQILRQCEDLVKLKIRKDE

[23] = target: GRIP2_4 PDZ (Homo sapiens, UniProt Q9C0E4); settings: composite holdup affinity; 0.00=below quantification threshold; read-out: COMP pKd (converted)
Sequence of GRIP2_4 PDZ (Q9C0E4 456-545 limits assumed): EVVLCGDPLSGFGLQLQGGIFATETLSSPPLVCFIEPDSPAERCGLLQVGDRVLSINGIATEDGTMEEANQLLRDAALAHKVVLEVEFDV

[24] = target: LIMK2 PDZ (Homo sapiens, UniProt P53671); settings: composite holdup affinity; 0.00=below quantification threshold; read-out: COMP pKd (converted)
Sequence of LIMK2 PDZ (P53671 152-239 limits assumed): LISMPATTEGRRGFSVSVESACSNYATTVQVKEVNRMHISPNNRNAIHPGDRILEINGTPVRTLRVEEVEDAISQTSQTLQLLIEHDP

[25] = target: GRIP2_3 PDZ (Homo sapiens, UniProt Q9C0E4); settings: composite holdup affinity; 0.00=below quantification threshold; read-out: COMP pKd (converted)
Sequence of GRIP2_3 PDZ (Q9C0E4 248-332 limits assumed): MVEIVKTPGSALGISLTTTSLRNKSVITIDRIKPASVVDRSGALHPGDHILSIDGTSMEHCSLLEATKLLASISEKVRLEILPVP

[26] = target: AHNAK1 PDZ (Homo sapiens, UniProt Q09666); settings: composite holdup affinity; 0.00=below quantification threshold; read-out: COMP pKd (converted)
Sequence of AHNAK1 PDZ (Q09666 9-90 limits assumed): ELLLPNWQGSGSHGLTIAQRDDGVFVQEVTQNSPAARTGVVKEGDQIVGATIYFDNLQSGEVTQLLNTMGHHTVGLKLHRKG

[27] = target: DLG2_1 PDZ (Homo sapiens, UniProt Q15700); settings: sheet PPI_convert; read-out: affinity to PDZ DLG2_1 (converted)
Sequence of DLG2_1 PDZ (Q15700 98-184): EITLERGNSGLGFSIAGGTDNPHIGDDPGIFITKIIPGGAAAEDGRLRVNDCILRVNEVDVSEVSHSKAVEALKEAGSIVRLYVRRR

[28] = target: GRIP1_1 PDZ (Homo sapiens, UniProt Q9Y3R0); settings: sheet PPI_convert; read-out: affinity to PDZ GRIP1_1 (converted)
Sequence of GRIP1_1 PDZ (Q9Y3R0 53-136 limits assumed): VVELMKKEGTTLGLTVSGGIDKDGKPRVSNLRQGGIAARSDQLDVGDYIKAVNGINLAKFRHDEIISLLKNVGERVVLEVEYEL

[29] = target: MAGI1_3 PDZ (Homo sapiens, UniProt Q96QZ7); settings: sheet PPI_convert; read-out: affinity to PDZ MAGI1_3 (converted)
Sequence of MAGI1_3 PDZ (Q96QZ7 643-721 limits assumed): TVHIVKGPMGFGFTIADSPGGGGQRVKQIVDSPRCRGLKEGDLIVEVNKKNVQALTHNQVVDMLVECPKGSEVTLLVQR

[30] = target: MAGI1_5 PDZ (Homo sapiens, UniProt Q96QZ7); settings: sheet PPI_convert; read-out: affinity to PDZ MAGI1_5 (converted)
Sequence of MAGI1_5 PDZ (Q96QZ7 970-1066 limits assumed): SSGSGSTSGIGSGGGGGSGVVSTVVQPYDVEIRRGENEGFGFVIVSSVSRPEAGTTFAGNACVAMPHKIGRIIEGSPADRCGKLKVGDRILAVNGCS

[31] = target: Inadl_5 PDZ (Homo sapiens, UniProt Q8NI35); settings: composite holdup affinity; 0.00=below quantification threshold; read-out: COMP pKd (converted)
Sequence of Inadl_5 PDZ (Q8NI35 686-772 limits assumed): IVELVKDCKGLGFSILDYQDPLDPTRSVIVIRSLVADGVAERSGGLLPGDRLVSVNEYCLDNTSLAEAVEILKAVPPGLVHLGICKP

[32] = target: CARD14 PDZ (Homo sapiens, UniProt Q9BXL6); settings: sheet PPI_convert; read-out: affinity to PDZ CARD14 (converted)
Sequence of CARD14 PDZ (Q9BXL6 568-658 limits assumed): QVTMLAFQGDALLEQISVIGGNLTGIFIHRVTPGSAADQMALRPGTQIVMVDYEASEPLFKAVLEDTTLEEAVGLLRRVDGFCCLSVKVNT

[33] = target: CNKSR1 PDZ (Homo sapiens, UniProt Q969H4); settings: sheet PPI_convert; read-out: affinity to PDZ CNKSR1 (converted)
Sequence of CNKSR1 PDZ (Q969H4 196-285 limits assumed): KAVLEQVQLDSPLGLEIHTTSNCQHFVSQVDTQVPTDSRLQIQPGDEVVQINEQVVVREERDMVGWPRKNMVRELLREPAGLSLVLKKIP
Text: Supplement 41467_2022_33018_MOESM4_ESM.xlsx, sheet "PPI_convert" | column: CNKSR1

[34] = target: DLG5_2 PDZ (Homo sapiens, UniProt Q8TDM6); settings: sheet PPI_convert; read-out: affinity to PDZ DLG5_2 (converted)
Sequence of DLG5_2 PDZ (Q8TDM6 705-796 limits assumed): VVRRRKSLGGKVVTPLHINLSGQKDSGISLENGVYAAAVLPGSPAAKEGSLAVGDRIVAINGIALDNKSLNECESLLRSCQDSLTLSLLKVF

Sequence of NHERF3_1 PDZ (Q5T2W1 9-90 limits assumed): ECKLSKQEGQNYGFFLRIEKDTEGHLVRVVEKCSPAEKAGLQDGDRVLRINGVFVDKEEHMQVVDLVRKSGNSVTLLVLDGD

RHTTSTETAV [HPV30-E6]
Kd [1]: 13.5 µM | Kd [2]: 4.37 µM | Kd [3]: 2.34 µM | Kd [4]: 11.7 µM | Kd [5]: 7.41 µM | Kd [6]: 21.9 µM | Kd [7]: 22.4 µM | Kd [8]: 34.7 µM | Kd [9]: 110 µM | Kd [10]: 44.7 µM | Kd [11]: 115 µM | Kd [12]: 44.7 µM | Kd [13]: 40.7 µM | Kd [14]: 170 µM | Kd [15]: 58.9 µM | Kd [16]: 64.6 µM | Kd [17]: 195 µM | Kd [18]: 214 µM | Kd [19]: 145 µM | Kd [20]: 110 µM | Kd [21]: 135 µM | Kd [22]: 178 µM | Kd [23]: 219 µM | Kd [24]: 141 µM | Kd [25]: 245 µM | Kd [26]: 191 µM | Kd [27]: 14.5 µM | Kd [28]: 25.7 µM | Kd [29]: 19.1 µM | Kd [30]: 9.55 µM

RTRQRNETQV [HPV51-E6]
Kd [1]: 67.6 µM | Kd [2]: 9.55 µM | Kd [3]: 7.41 µM | Kd [4]: 16.6 µM | Kd [5]: 41.7 µM | Kd [6]: 58.9 µM | Kd [7]: 74.1 µM | Kd [8]: 204 µM | Kd [10]: 204 µM | Kd [12]: 17.8 µM | Kd [13]: 28.8 µM | Kd [15]: 389 µM | Kd [16]: 145 µM | Kd [19]: 331 µM | Kd [31]: 398 µM | Kd [20]: 234 µM | Kd [32]: 45.7 µM | Kd [33]: 36.3 µM | Kd [27]: 8.71 µM | Kd [34]: 23.4 µM
